Source: patent US10772840B2 (Charleston Laboratories, Inc., priority 2016, dated 2020)

What was measured:
[1] = Impurity profile (related substances) by HPLC, initial and after one month at 40° C. (stability study); type: physicochemical; details: HPLC percent area
Description: The percentages of related substances were measured using an HPLC.
Stock promethazine HCl selectivity solution was prepared by accurately weighing about 2 mg of EP promethazine for peak identification CRS and transferring into 1 mL of diluent (prepared by mixing 750 mL of mobile phase A and 250 mL of acetonitrile), followed by vortexing to dissolve.
Ten capsules were randomly selected and weighed. The contents of the ten capsules were emptied into a 500 mL volumetric flask. 300 mL of diluent was added and the mixture was sonicated in an ice bath for 40 minutes or until completely disintegrated with intermittent swirling. The temperature was equilibrated to room temperature and more diluent was added to volume.
Promethazine HCl impurity sample solution: stock solution sample was filtered through a 0.45 μm PVDF membrane, syringe filter or a 0.45 μm PTFE w/GMF membrane, syringe filter discarding the first 5 mL and collecting approximately 20 mL into an appropriate glass container. Fill an HPLC vial with the filtrate
The RT of the promethazine in the promethazine HCl selectivity solution is between 44.1 and 53.9.
Mobile Phase B: 0.2% TFA in Acetonitrile, which was prepared by mixing well 2.0 ml of trifluoroacetic acid to 1 L of acetonitrile; and Gradient used was as follows in Table 15.
All known and unknown impurities were calculated via percent area as follow:
[formula] Where: • Ru=Peak area of related substance in the sample solution • Rt=Sum of peak area of promethazine or sumatriptan and all related substances areas corresponding to respective peak in sample solution • RRF=Relative Response Factor for related substances
The formulation was examined for its stability after one month at 40° C.

[2] = Dissolution measurement by USP Apparatus 2 (Paddle Apparatus), HPLC analysis; type: physicochemical; details: in a capsule, 500 ml 0.1 N HCl pH 1.1, N=6
Description: Dissolution studies were conducted to measure the rates of dissolution of active ingredients using a USP Apparatus 2 (Paddle Apparatus) with a dissolution fluid of 500 ml deaerated 0.1 N HCl (i.e., pH 1.1) at 37.0+/−0.5° C. Dissolution samples were analyzed by HPLC.
Dissolution medium of 0.1N HCl was prepared by mixing approximately 85 ml of concentrated (12N) Hydrochloric Acid with 10 L of water. Stock promethazine HCl standard solution was prepared by adding approximately 30 ml of dissolution medium to 25.0 mg of dried Promethazine Hydrochloride USP reference standard in a 50 ml volumetric flash, diluted to volume with dissolution media, and mixed well. […] The resulting solution is diluted to volume with dissolution medium and mixed well.
The dissolution apparatus used is USP Apparatus 2 (Paddle Apparatus) with a speed of 50 rpm at 37.0° C.±0.5° C. Dissolution medium (500 ml) was Helium sparged for at least 10 minutes. N=6 samples were tested. Sample time point of 5, 10, 15, 20, 30, 45, 60, and 90 minutes (final time point at 250 rpm). Filters: QLA 10 μm in-line full flow porous filter or equivalent; chromafil 1.0 μm on-line glass fiber membrane filter or equivalent.
The dissolution apparatus was assembled and the paddle was positioned so that the distance between its lower edge and the lower inner surface of the vessel is within 25 mm±2 mm throughout the test. This step was repeated for each of the six vessels. The speed (50 rpm) and the temperature (37.0° C.±0.5° C.) were set. 500 mL of 0.1N HCl solution were placed into each of the six vessels, previously degassed via helium purge, degassed using degasser or other suitable means. The Dissolution medium was equilibrated to set temperature and the temperature of the dissolution medium was checked with a thermometer or thermocouple before starting the dissolution. Each of the six (6) capsules were accurately weighed and the weight was recorded. The dissolution test was started. Each capsule was dropped with sinker into vessels noting the station assigned to each recorded capsule weight. The shaft was rotated at 50 rpm. Samples were withdrawn by dissolution auttosampler at 5, 10, 15, 20, 30, 45, 60, and 90 minutes into HPLC vials, or were withdraw manually. Filters (QLA 10 μm in-line full flow porous filter or equivalent; chromafil 1.0 μm on-line glass fiber membrane filter or equivalent) were utilized, discarding at least the first 5 mL of the filtrate, and clear filtrate was transfered into HPLC vials. After withdrawing samples at the 60 minute time point, the paddle rotation speed was increased to 250 rpm until the next time point of 90 minutes.
HPLC conditions: Flow rate: 1.0 ml/min; Injection Volume: 10 μL; Column Temperature: 40° C.±2° C.; Wavelengths: 240 nm; Run Time: 7 minutes; Mobile Phase A was 0.2% TFA in Water, which was prepared by mixing well 2.0 ml of trifluoroacetic acid with 1 L of water. Mobile Phase B: 0.2% TFA in Acetonitrile, which was prepared by mixing well 2.0 ml of trifluoroacetic acid to 1 L of acetonitrile; and Gradient used was as follows in Table 8.
If a Water® dissolution autosampler was utilized, then the Empower Dissolution Software was used to calculate the profile. Calculation are performed using a validated excel spreadsheet. When the sample was performed manually, the volume correction was considered for the calculation.

[3] = after 1 month store at 40° C., 5 min, 50 rpm
[4] = after 1 month store at 40° C., 10 min, 50 rpm
[5] = after 1 month store at 40° C., 15 min, 50 rpm
[6] = after 1 month store at 40° C., 20 min, 50 rpm
[7] = after 1 month store at 40° C., 30 min, 50 rpm
[8] = after 1 month store at 40° C., 45 min, 50 rpm
[9] = after 1 month store at 40° C., 60 min, 50 rpm
[10] = after 1 month store at 40° C., 90 min (250 rpm after 60 min)
[11] = large batch, 90 min (250 rpm after 60 min)

CNS(=O)(=O)Cc1ccc2[nH]cc(CCN(C)C)c2c1 [Sumatriptan, Sumatriptan succinate]
Impurity percentages, all related substances combined ([1]; in a capsule stored at 40° C. for 1 month): None Detected | Impurity percentages, all related substances combined ([1]; in a capsule, initial (before storage)): 0.1% | Dissolution (% release), Max. [2, 3]: 77 | Dissolution (% release), Mean [2, 3]: 60 | Dissolution (% release), Min. [2, 3]: 47 | Dissolution (% release), Max. [2, 4]: 89 | Dissolution (% release), Mean [2, 4]: 76 | Dissolution (% release), Min. [2, 4]: 62 | Dissolution (% release), Max. [2, 5]: 91 | Dissolution (% release), Mean [2, 5]: 81 | Dissolution (% release), Min. [2, 5]: 69 | Dissolution (% release), Max. [2, 6]: 94 | Dissolution (% release), Mean [2, 6]: 85 | Dissolution (% release), Min. [2, 6]: 74 | Dissolution (% release), Max. [2, 7]: 95 | Dissolution (% release), Mean [2, 7]: 88 | Dissolution (% release), Min. [2, 7]: 80 | Dissolution (% release), Max. [2, 8]: 97 | Dissolution (% release), Mean [2, 8]: 91 | Dissolution (% release), Min. [2, 8]: 84 | Dissolution (% release), Max. [2, 9]: 98 | Dissolution (% release), Mean [2, 9]: 93 | Dissolution (% release), Min. [2, 9]: 86 | Dissolution (% release), Max. [2, 10]: 100 | Dissolution (% release), Mean [2, 10]: 98 | Dissolution (% release), Min. [2, 10]: 96 | Dissolution (% release), Max. ([2]; large batch, 5 min, 50 rpm): 73 | Dissolution (% release), Mean ([2]; large batch, 5 min, 50 rpm): 66 | Dissolution (% release), Min. ([2]; large batch, 5 min, 50 rpm): 56 | Dissolution (% release), Max. ([2]; large batch, 10 min, 50 rpm): 86 | Dissolution (% release), Mean ([2]; large batch, 10 min, 50 rpm): 80 | Dissolution (% release), Min. ([2]; large batch, 10 min, 50 rpm): 73 | Dissolution (% release), Max. ([2]; large batch, 15 min, 50 rpm): 89 | Dissolution (% release), Mean ([2]; large batch, 15 min, 50 rpm): 85 | Dissolution (% release), Min. ([2]; large batch, 15 min, 50 rpm): 81 | Dissolution (% release), Max. ([2]; large batch, 20 min, 50 rpm): 91 | Dissolution (% release), Mean ([2]; large batch, 20 min, 50 rpm): 88 | Dissolution (% release), Min. ([2]; large batch, 20 min, 50 rpm): 84 | Dissolution (% release), Max. ([2]; large batch, 30 min, 50 rpm): 93 | Dissolution (% release), Mean ([2]; large batch, 30 min, 50 rpm): 90 | Dissolution (% release), Min. ([2]; large batch, 30 min, 50 rpm): 87 | Dissolution (% release), Max. ([2]; large batch, 45 min, 50 rpm): 95 | Dissolution (% release), Mean ([2]; large batch, 45 min, 50 rpm): 93 | Dissolution (% release), Min. ([2]; large batch, 45 min, 50 rpm): 91 | Dissolution (% release), Max. ([2]; large batch, 60 min, 50 rpm): 96 | Dissolution (% release), Mean ([2]; large batch, 60 min, 50 rpm): 94 | Dissolution (% release), Min. ([2]; large batch, 60 min, 50 rpm): 92 | Dissolution (% release), Max. [2, 11]: 98 | Dissolution (% release), Mean [2, 11]: 98 | Dissolution (% release), Min. [2, 11]: 97
